The values below come from patent publication US20250326988A1, “SELF-PRESERVED, MILD LIQUID LAUNDRY DETERGENT FORMULAS” (Henkel AG & Co. KGaA, priority 2024, published 2025).

The test system of this assay is Fungi. The assay can be described thus: Micro challenge, fungi reduction. In kind it is cell-based. The following applies: for Estimated Regression Coefficients for 7 Day: Coefficient / Estimated Regression Coefficients for 14 Day: Coefficient / Estimated Regression Coefficients for 21 Day: Coefficient / Estimated Regression Coefficients for 28 Day: Coefficient: Minitab regression of fungi log reductions; for efficacy of ingredient for log reduction as indicated by estimated regression coefficients: ethanol at day 7, sodium chloride afterwards. As to the method:
Micro challenges were performed on Formulations 61J-L, 62A-M, […] and […] prepared in Example 1 for log reduction rates of bacteria and fungi. Bacteria were double challenged (inoculated about 1E08 to 1E09 CFU/g) and Fungi was single challenged (inoculated about 1E8 to 5E8). A. brasillienis (mold), S. aureus, E. coli, P. gergoviae/[…] mixture, P. aeruginosa, C. albicans (yeast), H. venusta were tested. Pass criteria for bacterium was greater than 3 log reduction on day 7 and 4 logs on day 28. Pass criteria for fungi was greater than 1 log reduction at 14 days with no growth observed afterwards.

Turning to `CC(C(=O)O)N(CC(=O)O)CC(=O)O` (centres unmarked) [MGDA, methylglycinediacetic acid], the “Estimated Regression Coefficients for 7 Day: Coefficient” value is listed as 1.16, the “Estimated Regression Coefficients for 14 Day: Coefficient” value is given as 1.42, the “Estimated Regression Coefficients for 21 Day: Coefficient” value is recorded as 1.43 and the “Estimated Regression Coefficients for 28 Day: Coefficient” value is on record as 1.42.

As to `[Cl-].[Na+]` [NaCl, sodium chloride], the “Estimated Regression Coefficients for 7 Day: Coefficient” value was 1.36, the “Estimated Regression Coefficients for 14 Day: Coefficient” value is reported as 2.14, the “Estimated Regression Coefficients for 21 Day: Coefficient” value is listed as 3.13 and the “Estimated Regression Coefficients for 28 Day: Coefficient” value is 3.42. Moreover, the “efficacy of ingredient for log reduction as indicated by estimated regression coefficients” value is “comparable to ethanol's efficacy”.

For the molecule `CCO` [Ethanol], the “Estimated Regression Coefficients for 7 Day: Coefficient” value is 2.24, the “Estimated Regression Coefficients for 14 Day: Coefficient” value is listed as 3.08, the “Estimated Regression Coefficients for 21 Day: Coefficient” value is recorded as 3.22 and the “Estimated Regression Coefficients for 28 Day: Coefficient” value was 3.09. The “efficacy of ingredient for log reduction as indicated by estimated regression coefficients” value is reported as “most effective log reduction”.
